Test results from patent US11376224B2, “System for delivery of FK506 for enhancing nerve regeneration” (THE HOSPITAL FOR SICK CHILDREN, priority 2016, dated 2022).

Assay: FK506 tissue concentrations (organ exposure) by mass spectrometry after drug delivery system implantation
Assay type: in vivo, Sprague-Dawley rats
Procedure: FK506 was detectable within the proximal injured sciatic nerve, DRGs (L4, L5), the entire spinal cord, and the muscles surrounding the nerve repair site, decreasing in concentration over time. FK506 content within the tissues was determined using mass spectrometry. (Mean±standard deviation, n=4).
Thirty adult female Sprague-Dawley rats were randomized into five groups (n=6). The experimental group included rats treated with fibrin gel loaded with FK506 by incorporating 10 microliters solubilized FK506 in acetonitrile (2 milligrams per milliliter), 200 micrograms solid FK506 particulates, or 5 milligrams of FK506 containing microspheres into the thrombin solution before it was mixed with fibrinogen to form a gel.
During the procedure, the sciatic nerve was exposed and the main branches were dissected. The tibial (TIB) nerve was transected 5 millimeters distal to its bifurcation from the common peroneal (CP) nerve and sural nerves with fine microsurgical scissors. The proximal TIB nerve stump was cross-sutured to the distal stump of a cut CP nerve. In the groups receiving the fibrin gel based drug delivery system, the nerve suture site was surrounded by two 40 microliters of the fibrin gels (containing applicable components for each group) formed by pipetting the fluid fibrin mixture onto a Parafilm sheet as semi-rectangular drops (˜5×5 millimeters) and placing the drops above and below the repair site. By gently opposing the drops, the delivery system was secured around the nerve. Three weeks after repair, the number of neurons that regenerated their axons were determined using retrograde labeling 7 millimeter distal to the repair site. Nerve samples at the location of retrograde labeling were collected for histomorphometric analysis. Using mass spectrometry, FK506 tissue concentrations were analyzed at the site of the injury, in sciatic nerve, dorsal root ganglia (DRGs), spinal cord, brain, heart, liver, kidney, and plasma at 7, 14, and 28 days post repair.

[1] = first week of drug release in vivo (7 days)

- FK506 levels in sciatic nerve, gluteal muscles, spinal cord, kidney (at 14 days): barely detectable levels
- FK506 within the DRGs (L4, L5) (at 14 days): accumulation
- FK506 within the DRGs (L4, L5) (at 28 days): undetectable
- FK506 levels in sciatic nerve, gluteal muscles, spinal cord, kidney (by 28 days): undetectable levels
- FK506 in contralateral sciatic nerve, contralateral gluteal muscles, contralateral L4-L5 DRGs (entire period of the treatment): did not contain any FK506
- FK506 in plasma, brain, liver, or heart (entire study period): not detectable
- FK506 in entire spinal cord [1]: highest level
- FK506 in gluteal muscles surrounding the nerve [1]: detected
SMILES: C=CC[C@@H]1/C=C(\C)C[C@H](C)C[C@H](OC)[C@H]2O[C@@](O)(C(=O)C(=O)N3CCCC[C@H]3C(=O)O[C@H](/C(C)=C/[C@@H]3CC[C@@H](O)[C@H](OC)C3)[C@H](C)[C@@H](O)CC1=O)[C@H](C)C[C@@H]2OC [FK506]
- FK506 in proximal injured sciatic nerve [1]: detected
